Source: US10961197B2, “Metal chelators for imaging, therapeutics, and bioanalysis” (THE BOARD OF TRUSTEES OF THE UNIVERSITY OF ILLINOIS, priority 2016, dated 2021)

Columns and labels:
Format in all cases: physicochemical
[1] = Quantum yield of emission of lanthanide complexes in water / aqueous buffer; details: Tb complex
Procedure: A cyclohexyl analog of the metal chelator was prepared with methylenecarboxylate pendant groups and a sensitizing chromophore (carbostyril 124) appended to one of the central nitrogens (compound iii). The synthesis of compound iii was remarkably efficient (8 steps, 45% overall yield). Moreover, it can be scaled up and altered to prepare different derivatives, as evidenced by the incorporation of a single chromophore into the structure. Given its position in the molecule, the amide oxygen between the cyclohexyl nitrogen and the chromophore may coordinate to a bound Tb ion. This coordination in turn would allow for efficient sensitization of metal luminescence and result in a high quantum yield of emission. […] The quantum yield of compound iii exceeded 50% in water, making it among the most efficient luminescent Tb complexes known.
All of the complexes prepared show characteristic lanthanide emission spectra. UV-Vis absorption spectra closely matched those of previously reported carbostyril-sensitized complexes. […] The efficient emission and lack of bound waters support the hypothesis that inner substitution positions the sensitizer such that it remains coordinated to the metal center.

[2] = EDTA challenge assay of kinetic inertness (luminescence over time, 5 nM complex, 1 mM EDTA); details: for stability in EDTA solution: for 2 days
Procedure: FIG. 2 is a graph of the relative kinetic stability as measured by the luminescence signal intensity at ca. 545 nm (for Tb(III) complexes) or 620 nm (for Eu(III) complexes) for various dilute aqueous solutions (5 nM) of the indicated metal complexes in TBS buffer containing 1 mM EDTA.
FIG. 3 is a graph of the relative kinetic stability as measured by the luminescence signal intensity at ca. 545 nm (for Tb(III) complexes) or 620 nm (for Eu(III) complexes) for various dilute aqueous solutions (5 nM) of the indicated metal complexes in TBS buffer containing 1 mM EDTA.
The cyclic TTHA-based complexes Tb-12a and Eu-12b were still more than 40% in emissive after 48 h.
(§1) Complete metallation, as judged by formation of green Tb luminescence, occurred in less than 15 min. The resulting complex was then diluted to a final concentration of 5 nM in buffer solution that contained a much higher concentration (1 mM) of a competing chelator, ethylene diamine tetraacetic acid (EDTA). By observing the metal luminescence over time, the kinetic inertness of compound iii relative to that of other known chelators was assessed.

[3] = Metallation of chelator with Tb in buffer at 1:1 ratio, judged by green Tb luminescence; details: 1:1 ratio in buffer
Procedure: as §1

Compound	quantum yield [1]	time to equilibrate with the EDTA solution ([2]; Tb complex) [h]	stability in EDTA solution [2]	time to complete metallation [3]	time to complete dissociation from Tb(III) [2]
Cc1cc(=O)[nH]c2c(NC(=O)CN(CCN(CC(=O)O)[C@@H]3CCCC[C@H]3N(CC(=O)O)CC(=O)O)[C@H]3CCCC[C@@H]3N(CC(=O)O)CC(=O)O)cccc12 [Compound iii]	exceeded 50%	2 to 3	remains essentially stable	less than 15 min	–
O=C(O)CN1CCN(CC(=O)O)CCN(CC(=O)O)CCN(CC(=O)O)CC1 [DOTA, 1,4,7,10-tetraazacyclododecane-1,4,7,10-tetraacetic acid]	–	–	remains essentially stable	–	–
O=C(O)CN(CCN(CC(=O)O)CC(=O)O)CCN(CC(=O)O)CC(=O)O [DTPA, diethylamine triamine pentaacetic acid]	–	–	–	–	ca. 10 h
DOTAm	–	–	remains essentially stable	–	–
